Laboratory results: US7041785B1, “B1-bradykinin receptor antagonists and use thereof” (Université de Sherbrooke, priority 1996, dated 2006)
Where two headings read alike, the source gives them in different places. Non-standard residues stand in square brackets, D forms with d. Residues, ends and D or L forms follow the SMILES beside them. Tyr(3,5-I2) = N[C@@H](Cc1cc(I)c(O)c(I)c1)C(=O)O; d2Nal = N[C@H](Cc1ccc2ccccc2c1)C(=O)O; Ahx = NCCCCCC(=O)O; Sar = CNCC(=O)O

Experiments:
[1] = system: T1, angiotensin-converting enzyme (ACE); test: Metabolic degradation by purified angiotensin-converting enzyme, HPLC analysis; assay type: in vitro ADME, rabbit; details: rabbit, isolated enzyme ace, pH 7.5
T1 construct: purified angiotensin-converting enzyme (ACE) from rabbit lungs; purchased Sigma, St-Louis, Mo; host or cells: purified from rabbit lungs
Summary of the method: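 Purified rabbit lung ACE (45 μg/mL final) in PBS (50 mmol/L, pH 7.5, 300 mmol/L NaCl) was incubated with peptides at 37 °C; peptides were pre-incubated 5 min before enzyme addition and samples were boiled to stop the reaction. Percent kinin degradation after 30 min was quantified by C18 reverse-phase HPLC at 214 nm, with metabolites identified by electrospray MS.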

[2] = molecular target: T2, angiotensin-converting enzyme (ACE) from rabbit lungs (Oryctolagus cuniculus, UniProt P12822); test: as above; assay type: in vitro ADME; design: purified angiotensin-converting enzyme (ACE) from rabbit lungs; purchased Sigma, St-Louis, Mo; host or cells: purified from rabbit lungs
T2 sequence (P12822 34-1310): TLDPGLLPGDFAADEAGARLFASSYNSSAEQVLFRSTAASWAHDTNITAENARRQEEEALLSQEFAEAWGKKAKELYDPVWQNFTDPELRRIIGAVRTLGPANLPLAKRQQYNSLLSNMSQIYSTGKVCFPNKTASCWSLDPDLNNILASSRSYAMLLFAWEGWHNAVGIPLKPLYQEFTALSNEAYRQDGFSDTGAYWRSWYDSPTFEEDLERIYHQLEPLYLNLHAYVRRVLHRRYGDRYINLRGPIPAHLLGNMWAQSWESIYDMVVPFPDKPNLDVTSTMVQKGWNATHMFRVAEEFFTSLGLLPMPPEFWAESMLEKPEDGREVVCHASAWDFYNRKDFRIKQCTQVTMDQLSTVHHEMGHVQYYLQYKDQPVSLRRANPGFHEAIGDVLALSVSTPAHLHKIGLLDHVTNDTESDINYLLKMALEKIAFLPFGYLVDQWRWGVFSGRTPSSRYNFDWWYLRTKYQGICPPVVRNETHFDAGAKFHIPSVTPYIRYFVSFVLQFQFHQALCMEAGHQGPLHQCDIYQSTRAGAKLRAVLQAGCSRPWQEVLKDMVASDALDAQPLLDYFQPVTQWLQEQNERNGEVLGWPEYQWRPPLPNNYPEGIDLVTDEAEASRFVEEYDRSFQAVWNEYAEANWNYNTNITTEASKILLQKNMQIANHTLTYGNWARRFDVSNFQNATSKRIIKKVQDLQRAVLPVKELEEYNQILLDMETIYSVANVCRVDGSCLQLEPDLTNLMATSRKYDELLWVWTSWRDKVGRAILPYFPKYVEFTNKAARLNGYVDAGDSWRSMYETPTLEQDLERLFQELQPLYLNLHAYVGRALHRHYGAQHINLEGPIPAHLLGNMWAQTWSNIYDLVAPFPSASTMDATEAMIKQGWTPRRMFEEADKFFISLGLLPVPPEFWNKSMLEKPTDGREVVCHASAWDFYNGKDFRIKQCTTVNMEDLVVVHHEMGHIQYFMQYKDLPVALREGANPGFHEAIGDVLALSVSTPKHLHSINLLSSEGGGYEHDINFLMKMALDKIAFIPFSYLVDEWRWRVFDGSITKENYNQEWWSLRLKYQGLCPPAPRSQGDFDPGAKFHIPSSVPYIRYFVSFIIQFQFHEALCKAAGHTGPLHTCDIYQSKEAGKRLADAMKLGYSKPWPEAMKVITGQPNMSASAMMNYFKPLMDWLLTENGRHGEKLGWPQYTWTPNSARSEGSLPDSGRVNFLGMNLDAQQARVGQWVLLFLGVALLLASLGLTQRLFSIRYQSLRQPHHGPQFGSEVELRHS
Experimental: The metabolic stability of various kinin-related peptides was evaluated by incubating the peptide in the presence of purified angiotensin-converting enzyme (ACE) from rabbit lungs (purchased from Sigma, St-Louis, Mo.) dissolved in phosphate buffered saline (PBS) (50 mmol/L, pH 7.5 containing 300 mmoL/L NaCl); the final concentration of enzyme was 45 μg/mL. The experimental protocol for the measurement of ACE activity has been described elsewhere^15,16. Briefly, 200 μmol/L of peptides (40 μL) were placed in a PBS buffer and incubated for 5 min at 37EC before adding 8.5 μL of ACE (total volume of the reaction medium; 190 μL). Samples were withdrawn at 30 min intervals, immersed in boiling water for 5 min, then cooled on ice and centrifuged (5 min) before proceeding to analysis of peptides by high pressure liquid chromatography (HPLC). Results of ACE metabolism are expressed in percent of kinin degradation following the incubation (30 min) of kinin substrates with the enzyme.
Pure peptides and metabolic products were analysed by reverse-phas HPLC on a C18 μBondapak column (4.6 mm×25 cm) (Waters) of 10-μm particle size. The peptides and their fragments were eluted at the rate of 2.0 mL/min. with a linear gradient ranging from 5 to 65% of acetonitrile/TFA 0.05%/water over 20 min. at room temperature. The elution positions of these peptides were determined by following the absorbance at 214 nm. For each assay, 50 μL of the reaction medium (treated or not with ACE) were extracted and injected into the column. Concentrations of the peaks products, different from the peaks of the peptide substrate, were estimated using a computer software program (Baseline 810; Waters) that controlled also all the chromatography operations. Isolated metabolites and substrates were collected and identified by Electrospray mass spectrometry (positive mode).

| SMILES | metabolised at 0.5 h, 42.1 μmol/L ([1]; 30 min incubation of peptide (200 μmol/L) with ACE, 37 C, read-out: ACE (% degradation)) | Less susceptible to ACE proteolytic degradation, relative to Lys(Leu8)desArgBK [2] | metabolised at 0.5 h, 42.1 μmol/L [1] |
| --- | --- | --- | --- |
| CC[C@H](C)[C@H](NC(=O)[C@@H](Cc1ccc2ccccc2c1)NC(=O)[C@H](CO)NC(=O)[C@H](Cc1ccccc1)NC(=O)CNC(=O)[C@@H]1CCCN1C(=O)[C@@H]1CCCN1C(=O)[C@H](CCCNC(=N)N)NC(=O)CNC)C(=O)O [Compound 26, Sar(D-βNal^7, Ile^8)desArg^9BK] (H-[Sar]RPPGFS[d2Nal]I-OH; N-terminus and C-terminus assumed) | 0% | 2-5 times | – |
| CC(=O)N[C@@H](Cc1ccc(O)cc1)C(=O)NCCCCCC(=O)N[C@@H](CCCCN)C(=O)N[C@@H](CCCNC(=N)N)C(=O)N1CCC[C@H]1C(=O)N1CCC[C@H]1C(=O)NCC(=O)N[C@@H](Cc1ccccc1)C(=O)N[C@@H](CO)C(=O)N1CCC[C@H]1C(=O)N[C@@H](CC(C)C)C(=O)O [Compound 27, AcTyrεAhxLys(Leu^8)desArg^9BK] | – | 2-5 times | 52 ± 1% |
| CNCC(=O)N[C@@H](Cc1ccc(O)cc1)C(=O)NCCCCCC(=O)N[C@@H](CCCCN)C(=O)N[C@@H](CCCNC(=N)N)C(=O)N1CCC[C@H]1C(=O)N1CCC[C@H]1C(=O)NCC(=O)N[C@@H](Cc1ccccc1)C(=O)N[C@@H](CO)C(=O)N1CCC[C@H]1C(=O)N[C@@H](CC(C)C)C(=O)O [Compound 28, SarTyrεAhxLys(Leu^8)desArg^9BK] | – | 2-5 times | 34 ± 3% |
| CC[C@H](C)[C@H](NC(=O)[C@@H](Cc1ccc2ccccc2c1)NC(=O)[C@H](CO)NC(=O)[C@H](Cc1ccccc1)NC(=O)CNC(=O)[C@@H]1CCCN1C(=O)[C@@H]1CCCN1C(=O)[C@H](CCCNC(=N)N)NC(=O)[C@H](CCCCN)NC(=O)CCCCCNC(=O)[C@H](Cc1ccc(O)cc1)NC(=O)CNC)C(=O)O [Compound 29, SarTyrεAhxLys(D-βNal^7, Ile^8)desArg^9BK] (H-[Sar]Y[Ahx]KRPPGFS[d2Nal]I-OH; N-terminus and C-terminus assumed) | – | 2-5 times | 15 ± 1% |
| CC[C@H](C)[C@H](NC(=O)[C@@H](Cc1ccc2ccccc2c1)NC(=O)[C@H](CO)NC(=O)[C@H](Cc1ccccc1)NC(=O)CNC(=O)[C@@H]1CCCN1C(=O)[C@@H]1CCCN1C(=O)[C@H](CCCNC(=N)N)NC(=O)[C@H](CCCCN)NC(=O)CCCCCNC(=O)[C@H](Cc1cc(I)c(O)c(I)c1)NC(=O)CNC)C(=O)O [Compound 30, SarTyr(3,5-I)εAhxLys(D-βNal^7, Ile^8)desArg^9BK] (H-[Sar][Tyr(3,5-I2)][Ahx]KRPPGFS[d2Nal]I-OH; N-terminus and C-terminus assumed) | – | 2-5 times | 13 ± 1% |
